Source: the NIST ThermoML archive (doi:10.1016/j.jct.2014.12.022)

Test: molar heat capacity at constant pressure; xn = mol fraction of the nth substance listed
Details: 100 kPa, Liquid, Small sample (50 mg) DSC

Cc1cccc(Cl)c1 [3-chlorotoluene] + c1ccccc1
molar heat capacity at constant pressure [J/K/mol]
Details | 293.15 K | 298.15 K | 303.15 K
x2 = 0.1056 | 169.49 | 170.68 | 171.79
x2 = 0.1477 | 167.26 | 168.43 | 169.51
x2 = 0.1746 | 165.85 | 167.02 | 168.08
x2 = 0.2065 | 164.21 | 165.37 | 166.4
x2 = 0.2347 | 162.78 | 163.93 | 164.95
x2 = 0.2856 | 160.26 | 161.4 | 162.4
x2 = 0.3148 | 158.85 | 160 | 160.98
x2 = 0.3452 | 157.42 | 158.56 | 159.53
x2 = 0.3899 | 155.37 | 156.52 | 157.48
x2 = 0.4132 | 154.33 | 155.48 | 156.44
x2 = 0.4499 | 152.73 | 153.89 | 154.85
x2 = 0.4967 | 150.76 | 151.94 | 152.9
x2 = 0.5231 | 149.69 | 150.88 | 151.84
x2 = 0.5505 | 148.6 | 149.81 | 150.77
x2 = 0.5836 | 147.32 | 148.55 | 149.52
x2 = 0.6335 | 145.46 | 146.73 | 147.72
x2 = 0.6625 | 144.42 | 145.71 | 146.71
x2 = 0.6988 | 143.15 | 144.47 | 145.5
x2 = 0.7207 | 142.41 | 143.74 | 144.78
x2 = 0.7756 | 140.58 | 141.98 | 143.06
x2 = 0.8045 | 139.65 | 141.08 | 142.18
x2 = 0.8466 | 138.32 | 139.8 | 140.94
x2 = 0.8845 | 137.14 | 138.67 | 139.84
x2 = 0.9197 | 136.05 | 137.63 | 138.84

Cc1ccc(Cl)cc1 [4-chlorotoluene] + c1ccccc1
molar heat capacity at constant pressure [J/K/mol]
Details | 293.15 K | 298.15 K | 303.15 K
x2 = 0.0912 | 170.37 | 172.42 | 174.55
x2 = 0.1226 | 168.6 | 170.58 | 172.63
x2 = 0.1657 | 166.22 | 168.12 | 170.06
x2 = 0.2012 | 164.3 | 166.15 | 168.01
x2 = 0.2374 | 162.4 | 164.19 | 165.99
x2 = 0.2675 | 160.86 | 162.61 | 164.35
x2 = 0.3135 | 158.57 | 160.26 | 161.93
x2 = 0.3456 | 157.02 | 158.69 | 160.3
x2 = 0.3702 | 155.87 | 157.51 | 159.08
x2 = 0.4231 | 153.47 | 155.06 | 156.56
x2 = 0.4657 | 151.63 | 153.19 | 154.63
x2 = 0.5093 | 149.83 | 151.35 | 152.74
x2 = 0.5346 | 148.82 | 150.33 | 151.68
x2 = 0.5723 | 147.36 | 148.85 | 150.16
x2 = 0.6022 | 146.25 | 147.72 | 148.99
x2 = 0.6357 | 145.04 | 146.49 | 147.73
x2 = 0.6701 | 143.84 | 145.27 | 146.49
x2 = 0.6989 | 142.86 | 144.29 | 145.48
x2 = 0.7224 | 142.08 | 143.51 | 144.68
x2 = 0.7564 | 140.98 | 142.41 | 143.56
x2 = 0.8096 | 139.31 | 140.75 | 141.89
x2 = 0.8213 | 138.95 | 140.4 | 141.54
x2 = 0.8543 | 137.95 | 139.41 | 140.56
x2 = 0.8886 | 136.92 | 138.42 | 139.57
